One assay has as its system sedge, umbrella. Briefly: Test C flooded paddy test. Type of assay: in vivo, Cyperus difformis. Conditions: Flood. The procedure, abridged: (§1)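 2-leaf stage; flood 3 cm over soil; compound into paddy water; depth held; greenhouse 13–15 d; visual % control vs untreated (0 = none, 100 = complete); "-" = not tested.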
In the next assay the test system is crabgrass, large. Nature of the assay: Test A pre-/postemergence herbicide test. The class given is in vivo, Digitaria sanguinalis. Conditions: for pest or weed control at 1000 g/ha: 1000 g ai/ha. In a few lines:
(§2)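 Seeds in loam–sand blend received preemergence directed soil spray; separately, plants 2–10 cm at one- to two-leaf stage received postemergence spray, both with test chemicals in non-phytotoxic solvent with surfactant. After ~10 days in greenhouse, injury rated visually against untreated controls, 0 (no effect) to 100 (complete control).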

Another assay concerns morningglory. Nature of the assay: Test A pre-/postemergence herbicide test. The class given is in vivo, Ipomoea spp. Conditions: for pest or weed control at 500 g/ha / pest or weed control at 1000 g/ha: Ipomoea, 240 h, read-out: Plant response rating, Morningglory; for pest or weed control at 1000 g/ha: 1000 g ai/ha. The procedure, abridged:
as §2

The next assay has as its system ducksalad. Briefly: Test C flooded paddy test. Type of assay: in vivo, Heteranthera limosa. As to conditions: Flood. In a few lines:
as §1

A further assay deals with rice. Briefly: Test C flooded paddy test. Type of assay: in vivo, Oryza sativa. As to conditions: Flood. The procedure, abridged: as §1
In a further assay the test system is velvetleaf. Nature of the assay: Test A pre-/postemergence herbicide test. The class given is in vivo, Abutilon theophrasti. As to conditions: for pest or weed control at 500 g/ha / pest or weed control at 1000 g/ha: Abutilon theophrasti, 240 h, read-out: Plant response rating, Velvetleaf; for pest or weed control at 1000 g/ha: 1000 g ai/ha. In a few lines: as §2

Where [1] appears, read: 62 g ai/ha, scale of 0 to 100 where 0 is no effect and 100 is complete control, 13 to 15 days.
[2] abbreviates: Postemergence, 125 g ai/ha, 0 to 100 scale, 0 no effect, 100 complete control.
Setting [3] is: Postemergence, 500 g ai/ha, 0 to 100 scale (0 no effect, 100 complete control).
[4] abbreviates: Preemergence, 125 g ai/ha, visual rating on 0 to 100 scale (0 no effect, 100 complete control).
The mark [5] stands for this setting: preemergence, 500 g ai/ha, 0 to 100 scale.
[6] abbreviates: 125 g ai/ha, scale of 0 to 100 where 0 is no effect and 100 is complete control, 13 to 15 days.
[7] abbreviates: post-emergence, Postemergence, 500 g ai/ha, 0 to 100 scale (0 no effect, 100 complete control).
The mark [8] stands for this setting: pre-emergence, preemergence, 500 g ai/ha, 0 to 100 scale.
The mark [9] stands for this setting: 31 g ai/ha, scale of 0 to 100 where 0 is no effect and 100 is complete control, 13 to 15 days.
Where [10] appears, read: post-emergence, Postemergence, 0 to 100 scale (0 no effect, 100 complete control).
The mark [11] stands for this setting: pre-emergence, Preemergence, visual rating on 0 to 100 scale (0 no effect, 100 complete control), approx. 10 days.

The structures appear in SMILES notation. Read-outs that look alike come from different tables or passages of the source.

Consider `O=C1NCC(c2ccc(Cl)c(Cl)c2)C1C(=O)Nc1ccccc1F` (racemic) [Compound 14], for which the “Plant response rating, Sedge, Umbrella” value in the assay on sedge, umbrella (setting [1]) was 0; in the assay on sedge, umbrella (250 g ai/ha, scale 0 to 100), 20. The “Plant response rating, Crabgrass, Large” value with crabgrass, large (setting [2]) was determined as 80; in the assay with crabgrass, large (setting [3]) it was 90; with crabgrass, large (setting [5]) it was 90. Also, in the assay with crabgrass, large (setting [4]), the “Crabgrass, Large plant response rating” value is listed as 90. Further, the “Plant response rating, Morningglory” value in the assay with morningglory (setting [2]), in the assay with morningglory (setting [3]) and in the assay with morningglory (setting [5]) was 0 each time. Further, the “Morningglory plant response rating” value with morningglory (setting [4]) amounted to 0. For the same compound, the “Plant response rating, Ducksalad” value in the assay on ducksalad (setting [1]) came to 40; in the assay with ducksalad (250 g ai/ha, scale 0 to 100), 85. Also, the “Plant response rating, Rice” value was determined as 0 in the assay on rice (setting [1]) and 0 in the assay with rice (250 g ai/ha, scale 0 to 100). Moreover, the entries for the “Plant response rating, Velvetleaf” value with velvetleaf (setting [2]), with velvetleaf (setting [3]) and in the assay with velvetleaf (setting [5]) were 0, 90 and 0, respectively. For the same compound, in the assay with velvetleaf (setting [4]), the “Velvetleaf plant response rating” value is 0.
`O=C1NCC(c2ccc(F)c(C(F)(F)F)c2)C1C(=O)Nc1cccc(F)c1F` (racemic) [Compound 77]: the “Plant response rating, Sedge, Umbrella” value worked out at 0 in the assay with sedge, umbrella (250 g ai/ha, scale 0 to 100); 0 with sedge, umbrella (500 g ai/ha, scale 0 to 100); 20 with sedge, umbrella (1000 g ai/ha, scale 0 to 100); 40 with sedge, umbrella (2000 g ai/ha, scale 0 to 100). The “Plant response rating, Crabgrass, Large” value was 80 with crabgrass, large (setting [2]); 80 in the assay with crabgrass, large (setting [3]); 90 in the assay with crabgrass, large (setting [5]). Besides, in the assay with crabgrass, large (setting [4]), the “Crabgrass, Large plant response rating” value is recorded as 90. The entries for the “Plant response rating, Morningglory” value with morningglory (setting [2]), with morningglory (setting [3]) and with morningglory (setting [5]) were 0, 30 and 60, respectively. Moreover, the “Morningglory plant response rating” value in the assay on morningglory (setting [4]) came to 20. Besides, the “Plant response rating, Ducksalad” value in the assay on ducksalad (250 g ai/ha, scale 0 to 100) was found to be 95; with ducksalad (500 g ai/ha, scale 0 to 100), 100; in the assay with ducksalad (1000 g ai/ha, scale 0 to 100) it was 100; with ducksalad (2000 g ai/ha, scale 0 to 100) it was 100. In addition, the “Plant response rating, Rice” value with rice (250 g ai/ha, scale 0 to 100) was 0; with rice (500 g ai/ha, scale 0 to 100) it was 0; in the assay on rice (1000 g ai/ha, scale 0 to 100), 20; in the assay on rice (2000 g ai/ha, scale 0 to 100), 60. The figures for the “Plant response rating, Velvetleaf” value with velvetleaf (setting [2]), in the assay on velvetleaf (setting [3]) and with velvetleaf (setting [5]) were 20, 40 and 0, respectively. Besides, the “Velvetleaf plant response rating” value in the assay with velvetleaf (setting [4]) stood at 0.
With `O=C1NCC(c2ccc(F)c(F)c2)C1C(=O)Nc1cccc(F)c1F` (racemic) [Compound 101], the “Plant response rating, Sedge, Umbrella” value was determined as 0 in the assay on sedge, umbrella (setting [6]); 0 in the assay with sedge, umbrella (250 g ai/ha, scale 0 to 100); 0 with sedge, umbrella (500 g ai/ha, scale 0 to 100); 0 in the assay on sedge, umbrella (1000 g ai/ha, scale 0 to 100). The “Plant response rating, Crabgrass, Large” value with crabgrass, large (setting [2]) was found to be 80; with crabgrass, large (setting [3]), 80; in the assay on crabgrass, large (setting [5]) it was 100. Also, the “Crabgrass, Large plant response rating” value in the assay on crabgrass, large (setting [4]) is on record as 90. The “Plant response rating, Morningglory” value was 30 in the assay on morningglory (setting [2]), 60 in the assay with morningglory (setting [3]) and 50 in the assay with morningglory (setting [5]). In addition, in the assay with morningglory (setting [4]), the “Morningglory plant response rating” value came out at 0. The “Plant response rating, Ducksalad” value came out at 90 in the assay with ducksalad (setting [6]); 95 in the assay with ducksalad (250 g ai/ha, scale 0 to 100); 100 in the assay on ducksalad (500 g ai/ha, scale 0 to 100); 100 in the assay on ducksalad (1000 g ai/ha, scale 0 to 100). Besides, the “Plant response rating, Rice” value with rice (setting [6]) came to 0; in the assay with rice (250 g ai/ha, scale 0 to 100) it was 0; in the assay on rice (500 g ai/ha, scale 0 to 100), 0; with rice (1000 g ai/ha, scale 0 to 100), 10. Moreover, the “Plant response rating, Velvetleaf” value in the assay on velvetleaf (setting [2]) worked out at 50; in the assay on velvetleaf (setting [3]), 70; in the assay with velvetleaf (setting [5]) it was 40. For the same compound, the “Velvetleaf plant response rating” value in the assay with velvetleaf (setting [4]) stood at 30.
As for `O=C1NCCC1C(=O)N(c1ccc(F)c(F)c1)c1ccccc1F` (stereo not shown) [Compound 5, N-(3,4-difluorophenyl)-N-(2-fluorophenyl)-2-oxo-3-pyrrolidinecarboxamide], the “Plant response rating, Sedge, Umbrella” value turned out to be 0 in the assay with sedge, umbrella (setting [1]); 0 in the assay with sedge, umbrella (setting [6]); 0 in the assay on sedge, umbrella (250 g ai/ha, scale 0 to 100). In addition, the pest or weed control at 125 g/ha in the assay with crabgrass, large (Digitaria sanguinalis, post-emergence, 240 h, Postemergence, 125 g ai/ha, 0 to 100 scale, 0 no effect, 100 complete control, read-out: Plant response rating, Crabgrass, Large) turned out to be 70%. The pest or weed control at 500 g/ha turned out to be 80% in the assay on crabgrass, large (Digitaria sanguinalis, post-emergence, 240 h, Postemergence, 500 g ai/ha, 0 to 100 scale (0 no effect, 100 complete control), read-out: Plant response rating, Crabgrass, Large); 90% in the assay with crabgrass, large (Digitaria sanguinalis, pre-emergence, 240 h, preemergence, 500 g ai/ha, 0 to 100 scale, read-out: Plant response rating, Crabgrass, Large); 10% with morningglory (setting [7]); 0% in the assay with morningglory (setting [8]); 0% with velvetleaf (setting [7]); 0% in the assay with velvetleaf (setting [8]). Besides, in the assay on crabgrass, large (setting [4]), the “Crabgrass, Large plant response rating” value worked out at 80. In the assay on morningglory (setting [4]), the “Morningglory plant response rating” value stood at 0. Also, the “Plant response rating, Ducksalad” value was found to be 30 in the assay with ducksalad (setting [1]); 70 in the assay with ducksalad (setting [6]); 80 in the assay with ducksalad (250 g ai/ha, scale 0 to 100). For the same compound, the “Plant response rating, Rice” value with rice (setting [1]) came to 0; with rice (setting [6]), 0; with rice (250 g ai/ha, scale 0 to 100), 0. Moreover, the “Velvetleaf plant response rating” value in the assay on velvetleaf (setting [4]) was found to be 0.
As to `O=C1NCC(c2ccc(F)c(F)c2)C1C(=O)Nc1cccc(F)c1F` (stereo not shown) [Compound 17, N-(2,3-difluorophenyl)-4-(3,4-difluorophenyl)-2-oxo-3-pyrrolidinecarboxamide], the “Plant response rating, Sedge, Umbrella” value with sedge, umbrella (setting [9]) was 0; in the assay with sedge, umbrella (setting [1]) it was 0; in the assay with sedge, umbrella (setting [6]), 0; in the assay on sedge, umbrella (250 g ai/ha, scale 0 to 100) it was 40. Also, the pest or weed control at 1000 g/ha is 90% in the assay on crabgrass, large (Digitaria sanguinalis, post-emergence, 240 h, Postemergence, 0 to 100 scale (0 no effect, 100 complete control), read-out: Plant response rating, Crabgrass, Large); 90% in the assay on crabgrass, large (Digitaria sanguinalis, pre-emergence, 240 h, Preemergence, visual rating on 0 to 100 scale (0 no effect, 100 complete control), approx. 10 days, read-out: Plant response rating, Crabgrass, Large); 0% in the assay with morningglory (setting [10]); 30% with morningglory (setting [11]); 50% in the assay with velvetleaf (setting [10]); 40% in the assay with velvetleaf (setting [11]). For the same compound, the “Plant response rating, Ducksalad” value in the assay on ducksalad (setting [9]) worked out at 40; in the assay on ducksalad (setting [1]) it was 80; in the assay on ducksalad (setting [6]), 100; with ducksalad (250 g ai/ha, scale 0 to 100) it was 100. Moreover, the “Plant response rating, Rice” value amounted to 0 in the assay with rice (setting [9]); 0 with rice (setting [1]); 0 with rice (setting [6]); 0 in the assay on rice (250 g ai/ha, scale 0 to 100).

Values taken from US10294202B2, “Pyrrolidinones as herbicides” (FMC Corporation, priority 2013, dated 2019).
